One series concerns advanced gastric cancer. As to conditions: completed phase II study, patients with advanced gastric cancer (Kaubisch et al. 2000); cited from earlier work.
The next series relates to pRb. As to the kind of experiment: Western blot analysis of pRb expression after oligonucleotide transfection. The series is classed as cell-based. Particulars: HCT116 cells, oligonucleotide 1 μM with lipofectin 19 μg/ml, extracts harvested after 48 h. As to the method: (§1) Sense and antisense phosphorothionate oligonucleotide with the sequence set out in SEQ1 and SEQ2 respectively were synthesised in a 380B DNA synthesiser. Each oligonucleotide was premixed with lipofectin reagent and diluted in DMEM (Gibco). 6 cm plates of HCT116 cells at 40-50% confluence were rinsed once with 4 ml serum free DMEM and transfected with the oligonucleotides at a final concentration of 1 μM and the lipofectin reagent at a final concentration of 19 μg/ml according to the manufacturer's instructions (Life Technologies Inc., Gaithersburg, Md.). After 4 hours, Foetal Calf Serum (Gibco) was added to a final concentration of 10%. A lipofectin only transfection was performed as a control. Cell extracts were harvested after 48 h and examined by Western blot analysis with a pRb antibody. Equal loading of protein samples was confirmed by Coomassie blue staining or by immunoreactivity with an anti-actin antibody (Sigma). The intensities of the Rb bands were quantised with an image scanner (Molecular Dynamics). […] The treatment with the sense oligonucleotide led to about a 5% reduction in the level of pRb. […] Apoptosis in the cultures 48 h after transfection was tested for using the TUNEL assay. An in situ apoptosis detection kit ApopTag (Oncor, Gaithersburg, Md.) was used as recommended by the manufacturer. […]

Series [1] relates to HCT116 cells. As to the kind of experiment: Growth curves of transfected cultures. The series is classed as cell-based. Particulars: oligonucleotide 1 μM. The method, then: as §1
Series [2] relates to HCT116 cells. The series is described as follows: TUNEL assay for apoptosis (ApopTag kit). Type of series: cell-based. Particulars: 48 h after transfection. The method, then:
as §1

On to `CN1CC[C@H](c2c(O)cc(O)c3c(=O)cc(-c4ccccc4Cl)oc23)[C@H](O)C1` [flavopiridol], for which the clinical responses entry in the series on advanced gastric cancer is “no clinical responses were observed”.
As to “antisense oligonucleotide: antisense phosphorothionate oligonucleotide to Rb, sequence SEQ2: 5′ -GGTTTTGGGCGGCATGAC-3′ (DNA, all phosphorothioate, methylation of C not given here)”, the “level of pRb expression relative to the control culture treated only with lipofectin” value with pRb was “about 30%”. In addition, the “effect on growth compared with the lipofectin-treated control culture” value in the series on HCT116 cells [1] is reported as “growth inhibition”. The compound also yielded an increase in apoptosis with HCT116 cells [2] (versus lipofectin treated culture) of more than 10 fold. Moreover, the “percentage of TUNEL positive cells” value in the series on HCT116 cells [2] (oligonucleotide 1 μM) is 18+/−0.5%.

These data come from patent US7989176B2, “Treating cancer” (Theryte Ltd., priority 2002, dated 2011).
